Measured values from PubChem BioAssay (NCI).
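Assay format: 96-well plates, 48-hour exposure. Here, GI50 denotes the concentration required for 50% inhibition of growth. TGI: concentration producing complete growth inhibition.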

Assays:
Test in all cases: NCI anticancer screen, dose series, 48 h
HOP-92 NSCLC = tested on: HOP-92 NSCLC
PC-3 prostate = tested on: PC-3 prostate
MDA-MB-435 = tested on: MDA-MB-435
IGROV1 ovarian = tested on: IGROV1 ovarian
RPMI-8226 leukemia = tested on: RPMI-8226 leukemia
MALME-3M melanoma = tested on: MALME-3M melanoma
SNB-19 CNS = tested on: SNB-19 CNS
A498 renal = tested on: A498 renal
ACHN renal = tested on: ACHN renal
SNB-75 CNS = tested on: SNB-75 CNS
U251 CNS = tested on: U251 CNS
NCI-H522 lung = tested on: NCI-H522 lung
HT29 colon = tested on: HT29 colon
NCI/ADR-RES ovarian = tested on: NCI/ADR-RES ovarian
OVCAR-3 ovarian = tested on: OVCAR-3 ovarian
SF-295 CNS = tested on: SF-295 CNS
HCT-15 colon = tested on: HCT-15 colon
UACC-257 melanoma = tested on: UACC-257 melanoma
SK-MEL-28 melanoma = tested on: SK-MEL-28 melanoma
EKVX NSCLC = tested on: EKVX NSCLC
HCT-116 colon = tested on: HCT-116 colon
HOP-62 NSCLC = tested on: HOP-62 NSCLC
CAKI-1 renal = tested on: CAKI-1 renal
SF-539 CNS = tested on: SF-539 CNS
COLO 205 colon = tested on: COLO 205 colon
UO-31 renal = tested on: UO-31 renal
M14 melanoma = tested on: M14 melanoma
OVCAR-8 ovarian = tested on: OVCAR-8 ovarian
LOX IMVI melanoma = tested on: LOX IMVI melanoma
BT-549 breast = tested on: BT-549 breast
MDA-MB-231 breast = tested on: MDA-MB-231 breast
NCI-H226 lung = tested on: NCI-H226 lung
OVCAR-5 ovarian = tested on: OVCAR-5 ovarian
A549 NSCLC = tested on: A549 NSCLC
SK-MEL-2 melanoma = tested on: SK-MEL-2 melanoma
OVCAR-4 ovarian = tested on: OVCAR-4 ovarian
UACC-62 melanoma = tested on: UACC-62 melanoma
SK-OV-3 ovarian = tested on: SK-OV-3 ovarian
HCC-2998 colon = tested on: HCC-2998 colon
HS 578T breast = tested on: HS 578T breast
SK-MEL-5 melanoma = tested on: SK-MEL-5 melanoma
DU-145 prostate = tested on: DU-145 prostate
SW-620 colon = tested on: SW-620 colon
CCRF-CEM leukemia = tested on: CCRF-CEM leukemia
SF-268 CNS = tested on: SF-268 CNS
MCF7 breast = tested on: MCF7 breast
NCI-H460 lung = tested on: NCI-H460 lung
T-47D breast = tested on: T-47D breast
786-0 renal = tested on: 786-0 renal
SN12C renal = tested on: SN12C renal
TK-10 renal = tested on: TK-10 renal
RXF 393 renal = tested on: RXF 393 renal
KM12 colon = tested on: KM12 colon
HL-60(TB) leukemia = tested on: HL-60(TB) leukemia
K-562 leukemia = tested on: K-562 leukemia
SR leukemia = tested on: SR leukemia
MOLT-4 leukemia = tested on: MOLT-4 leukemia

Compound: OC1CCN(CCCOc2c3ccccc3nc3c2oc2ccccc23)CC1
- GI50 (HOP-92 NSCLC): 0.853 µM
- TGI (HOP-92 NSCLC): 4.28 µM
- GI50 (PC-3 prostate): 2.12 µM
- TGI (PC-3 prostate): 7.93 µM
- GI50 (MDA-MB-435): 2.31 µM
- TGI (MDA-MB-435): 6.79 µM
- GI50 (IGROV1 ovarian): 2.61 µM
- TGI (IGROV1 ovarian): 11.3 µM
- GI50 (RPMI-8226 leukemia): 2.47 µM
- TGI (RPMI-8226 leukemia): 7.46 µM
- GI50 (MALME-3M melanoma): 1.86 µM
- TGI (MALME-3M melanoma): 3.95 µM
- GI50 (SNB-19 CNS): 2.36 µM
- TGI (SNB-19 CNS): 14.8 µM
- GI50 (A498 renal): 1.73 µM
- TGI (A498 renal): 3.38 µM
- GI50 (ACHN renal): 0.8 µM
- TGI (ACHN renal): 25.2 µM
- GI50 (SNB-75 CNS): 1.86 µM
- TGI (SNB-75 CNS): 4.3 µM
- GI50 (U251 CNS): 2.14 µM
- TGI (U251 CNS): 12.2 µM
- GI50 (NCI-H522 lung): 1.57 µM
- TGI (NCI-H522 lung): 4.38 µM
- GI50 (HT29 colon): 1.1 µM
- TGI (HT29 colon): 3.65 µM
- GI50 (NCI/ADR-RES ovarian): 1.03 µM
- TGI (NCI/ADR-RES ovarian): 8.1 µM
- GI50 (OVCAR-3 ovarian): 3.61 µM
- TGI (OVCAR-3 ovarian): 24.9 µM
- GI50 (SF-295 CNS): 2.39 µM
- TGI (SF-295 CNS): 10.5 µM
- GI50 (HCT-15 colon): 2.02 µM
- TGI (HCT-15 colon): 9.73 µM
- GI50 (UACC-257 melanoma): 1.83 µM
- TGI (UACC-257 melanoma): 3.72 µM
- GI50 (SK-MEL-28 melanoma): 1.93 µM
- TGI (SK-MEL-28 melanoma): 3.81 µM
- GI50 (EKVX NSCLC): 2.79 µM
- TGI (EKVX NSCLC): 12.9 µM
- GI50 (HCT-116 colon): 0.505 µM
- TGI (HCT-116 colon): 12.3 µM
- GI50 (HOP-62 NSCLC): 2.32 µM
- TGI (HOP-62 NSCLC): 11.9 µM
- GI50 (CAKI-1 renal): 1.67 µM
- TGI (CAKI-1 renal): 12.9 µM
- GI50 (SF-539 CNS): 2.02 µM
- TGI (SF-539 CNS): 6.4 µM
- GI50 (COLO 205 colon): 1.06 µM
- TGI (COLO 205 colon): 2.83 µM
- GI50 (UO-31 renal): 1.18 µM
- TGI (UO-31 renal): 3.13 µM
- GI50 (M14 melanoma): 2.39 µM
- TGI (M14 melanoma): 7.89 µM
- GI50 (OVCAR-8 ovarian): 1.81 µM
- TGI (OVCAR-8 ovarian): 6.71 µM
- GI50 (LOX IMVI melanoma): 0.626 µM
- TGI (LOX IMVI melanoma): 3.51 µM
- GI50 (BT-549 breast): 2.8 µM
- TGI (BT-549 breast): 8.88 µM
- GI50 (MDA-MB-231 breast): 2.37 µM
- TGI (MDA-MB-231 breast): 11.1 µM
- GI50 (NCI-H226 lung): 1.9 µM
- TGI (NCI-H226 lung): 4.74 µM
- GI50 (OVCAR-5 ovarian): 2.47 µM
- TGI (OVCAR-5 ovarian): 9.49 µM
- GI50 (A549 NSCLC): 2.54 µM
- TGI (A549 NSCLC): 16.4 µM
- GI50 (SK-MEL-2 melanoma): 1.93 µM
- TGI (SK-MEL-2 melanoma): 3.59 µM
- GI50 (OVCAR-4 ovarian): 2.14 µM
- TGI (OVCAR-4 ovarian): 8.63 µM
- GI50 (UACC-62 melanoma): 1.86 µM
- TGI (UACC-62 melanoma): 4.43 µM
- GI50 (SK-OV-3 ovarian): 2.56 µM
- TGI (SK-OV-3 ovarian): 8.7 µM
- GI50 (HCC-2998 colon): 1.46 µM
- TGI (HCC-2998 colon): 3.76 µM
- GI50 (HS 578T breast): 2.38 µM
- TGI (HS 578T breast): 8.83 µM
- GI50 (SK-MEL-5 melanoma): 1.77 µM
- TGI (SK-MEL-5 melanoma): 3.2 µM
- GI50 (DU-145 prostate): 3.66 µM
- TGI (DU-145 prostate): 23.1 µM
- GI50 (SW-620 colon): 0.825 µM
- TGI (SW-620 colon): 11.9 µM
- GI50 (CCRF-CEM leukemia): 2.12 µM
- TGI (CCRF-CEM leukemia): 16.3 µM
- GI50 (SF-268 CNS): 2.53 µM
- TGI (SF-268 CNS): 14.8 µM
- GI50 (MCF7 breast): 2.31 µM
- TGI (MCF7 breast): 10.1 µM
- GI50 (NCI-H460 lung): 1.59 µM
- TGI (NCI-H460 lung): 11.1 µM
- GI50 (T-47D breast): 2.51 µM
- TGI (T-47D breast): 7.27 µM
- GI50 (786-0 renal): 2.3 µM
- TGI (786-0 renal): 18 µM
- GI50 (SN12C renal): 1.7 µM
- TGI (SN12C renal): 13.5 µM
- GI50 (TK-10 renal): 2.41 µM
- TGI (TK-10 renal): 7.73 µM
- GI50 (RXF 393 renal): 1.32 µM
- TGI (RXF 393 renal): 3.64 µM
- GI50 (KM12 colon): 2.99 µM
- TGI (KM12 colon): 49.6 µM

Compound: COc1ccc2[nH]cc(/C=N/Nc3ccnc4cc(Cl)ccc34)c2c1
- GI50 (MDA-MB-435): 1.67 µM
- TGI (MDA-MB-435): 3.06 µM
- GI50 (RPMI-8226 leukemia): 0.271 µM
- TGI (RPMI-8226 leukemia): 0.671 µM
- GI50 (MALME-3M melanoma): 1.76 µM
- TGI (MALME-3M melanoma): 3.22 µM
- GI50 (A498 renal): 1.49 µM
- TGI (A498 renal): 2.83 µM
- GI50 (ACHN renal): 0.346 µM
- TGI (ACHN renal): 1.07 µM
- GI50 (SNB-75 CNS): 1.56 µM
- TGI (SNB-75 CNS): 2.93 µM
- GI50 (HT29 colon): 0.219 µM
- TGI (HT29 colon): 0.482 µM
- GI50 (OVCAR-3 ovarian): 1.58 µM
- TGI (OVCAR-3 ovarian): 3.16 µM
- GI50 (CAKI-1 renal): 1.54 µM
- TGI (CAKI-1 renal): 2.91 µM
- GI50 (UO-31 renal): 1.47 µM
- TGI (UO-31 renal): 2.78 µM
- GI50 (HL-60(TB) leukemia): 0.265 µM
- TGI (HL-60(TB) leukemia): 0.859 µM
- GI50 (BT-549 breast): 1.68 µM
- TGI (BT-549 breast): 3.09 µM
- GI50 (OVCAR-5 ovarian): 1.49 µM
- TGI (OVCAR-5 ovarian): 2.84 µM
- GI50 (SK-MEL-2 melanoma): 1.83 µM
- TGI (SK-MEL-2 melanoma): 3.48 µM
- GI50 (HCC-2998 colon): 1.67 µM
- TGI (HCC-2998 colon): 3.19 µM
- GI50 (HS 578T breast): 1.99 µM
- TGI (HS 578T breast): 4.81 µM
- GI50 (SK-MEL-5 melanoma): 1.65 µM
- TGI (SK-MEL-5 melanoma): 3.06 µM
- GI50 (DU-145 prostate): 0.729 µM
- TGI (DU-145 prostate): 1.98 µM
- GI50 (SW-620 colon): 0.186 µM
- TGI (SW-620 colon): 0.379 µM
- GI50 (K-562 leukemia): 0.3 µM
- TGI (K-562 leukemia): > 100 µM
- GI50 (CCRF-CEM leukemia): 0.304 µM
- TGI (CCRF-CEM leukemia): 1.12 µM
- GI50 (SR leukemia): 0.171 µM
- TGI (SR leukemia): 4.14 µM
- GI50 (NCI-H460 lung): 0.202 µM
- TGI (NCI-H460 lung): 0.409 µM
- GI50 (T-47D breast): 1.28 µM
- TGI (T-47D breast): 3.59 µM
- GI50 (MOLT-4 leukemia): 0.265 µM
- TGI (MOLT-4 leukemia): 0.713 µM
- GI50 (SN12C renal): 1.6 µM
- TGI (SN12C renal): 3 µM
- GI50 (TK-10 renal): 1.9 µM
- TGI (TK-10 renal): 3.35 µM
- GI50 (KM12 colon): 1.65 µM
- TGI (KM12 colon): 3.92 µM
